Measurements published in US6525001B1, “Substituted pyrimidine and pyridine herbicides” (Mid-American Commercialization Corporation, priority 1997, dated 2003).

Legend:
Assay type in all cases: in vivo
Parameters in all cases: key: 0 is no effect; 10 is complete control
[1] = tested on: rape (Brassica napus); test: Test B pre-/postemergence
Method in brief: (§1)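 Response scores run from 0, meaning no effect, to 10, meaning complete control, assigned by eye relative to controls twelve to sixteen days after spraying. Treatment was both preemergence on planted seed and postemergence on plants at the 1- to 4-leaf stage.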

[2] = tested on: pigweed (Amaranthus retroflexus); test: Test B pre-/postemergence
Method in brief: as §1

[3] = tested on: blackgrass (Alopecurus myosuroides); test: Test B pre-/postemergence; conditions: for Blackgrass plant response rating: Preemergence
Method in brief: as §1

[4] = tested on: wild oat (Avena fatua); test: Test B pre-/postemergence
Method in brief: as §1

[5] = tested on: soybean (Glycine max); test: Test B pre-/postemergence
Method in brief: as §1

[6] = tested on: bedstraw (Galium aparine); test: Test B pre-/postemergence; conditions: for Bedstraw plant response rating: Preemergence
Method in brief: as §1

[7] = tested on: sugar beet (Beta vulgaris); test: Test B pre-/postemergence
Method in brief: as §1

[8] = tested on: wheat (Triticum aestivum); test: Test B pre-/postemergence
Method in brief: as §1

[9] = tested on: corn (Zea mays); test: Test B pre-/postemergence; conditions: for Corn plant response rating: Preemergence
Method in brief: as §1

[10] = tested on: momingglory (Ipomoea hederacea); test: Test B pre-/postemergence
Method in brief: as §1

[11] = tested on: velvetleaf (Abutilon theophrasti); test: Test B pre-/postemergence
Method in brief: as §1

[12] = tested on: broadleaf signalgrass (Brachiaria decumbens); test: Test B pre-/postemergence; conditions: for B. signalgrass plant response rating: Preemergence
Method in brief: as §1

[13] = tested on: purple nutsedge (Cyperus rotundus); test: Test B pre-/postemergence
Method in brief: as §1

[14] = tested on: giant foxtail (Setaria faberii); test: Test B pre-/postemergence
Method in brief: as §1

[15] = tested on: crabgrass (Digitaria sanguinalis); test: Test B pre-/postemergence; conditions: for Crabgrass plant response rating: Preemergence
Method in brief: as §1

[16] = tested on: cocklebur (Xanthium strumarium); test: Test B pre-/postemergence; conditions: for Plant response rating, Cocklebur: Postemergence; for Cocklebur plant response rating: Preemergence
Method in brief: as §1

[17] = tested on: smallflower flatsedge (Cyperus difformis); test: Test B flood test
Method in brief: (§2)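 Each value is a visual injury score relative to controls, with 10 meaning complete control and 0 no effect. Evaluation took place twelve to sixteen days after the 2-leaf-stage plants were treated and kept in the greenhouse.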

[18] = tested on: bamyardgrass (Echinochloa crus-galli); test: Test B flood test
Method in brief: as §2

[19] = tested on: rice (Oryza sativa); test: Test B flood test
Method in brief: as §2

[20] = tested on: duck salad (Heteranthera limosa); test: Test B flood test
Method in brief: as §2

[21] = Rate 250 g/ha, Postemergence (so in the source)
[22] = Rate 62 g/ha, Postemergence (flood test)
[23] = Rate 125 g/ha, Postemergence section (flood test species)
[24] = Rate 250 g/ha, Postemergence (flood test species)
[25] = Rate 125 g/ha, Postemergence, flood test

Cc1cnc(-c2ccc(Cl)c(Cl)c2)nc1Cc1cccc(C#N)c1 [Compound 38]
Plant response rating, Rape ([1]; Rate 62 g/ha, Postemergence): 3
Rape plant response rating ([1]; Rate 62 g/ha, Preemergence): 0
Rape plant response rating ([1]; Rate 125 g/ha, Postemergence): 3
Rape plant response rating ([1]; Rate 125 g/ha, Preemergence): 0
Plant response rating, Rape ([1]; Rate 250 g/ha, Postemergence): 6
Plant response rating, Rape [1, 21]: 0
Plant response rating, Redroot pigweed ([2]; Rate 62 g/ha, Postemergence): 2
Redroot pigweed plant response rating ([2]; Rate 62 g/ha, Preemergence): 0
Redroot pigweed plant response rating ([2]; Rate 125 g/ha, Postemergence): 4
Redroot pigweed plant response rating ([2]; Rate 125 g/ha, Preemergence): 0
Plant response rating, Redroot pigweed ([2]; Rate 250 g/ha, Postemergence): 5
Plant response rating, Redroot pigweed [2, 21]: 0
Plant response rating, Blackgrass ([3]; Rate 62 g/ha, Postemergence): 0
Blackgrass plant response rating ([3]; Rate 62 g/ha): 0
Plant response rating, Blackgrass ([3]; Rate 125 g/ha, Postemergence): 0
Blackgrass plant response rating ([3]; Rate 125 g/ha): 0
Plant response rating, Blackgrass ([3]; Rate 250 g/ha, Postemergence): 0
Plant response rating, Blackgrass [3, 21]: 0
Wild oats plant response rating ([4]; Rate 62 g/ha, Postemergence): 1
Wild oats plant response rating ([4]; Rate 62 g/ha, Preemergence): 0
Wild oats plant response rating ([4]; Rate 125 g/ha, Postemergence): 1
Plant response rating, Wild oats ([4]; Rate 125 g/ha, Preemergence): 0
Plant response rating, Wild oats ([4]; Rate 250 g/ha, Postemergence): 1
Plant response rating, Wild oats [4, 21]: 0
Plant response rating, Soybean ([5]; Rate 62 g/ha, Postemergence): 1
Soybean plant response rating ([5]; Rate 62 g/ha, Preemergence): 0
Soybean plant response rating ([5]; Rate 125 g/ha, Postemergence): 1
Plant response rating, Soybean ([5]; Rate 125 g/ha, Preemergence): 0
Plant response rating, Soybean ([5]; Rate 250 g/ha, Postemergence): 1
Plant response rating, Soybean [5, 21]: 0
Plant response rating, Bedstraw ([6]; Rate 62 g/ha, Postemergence): 7
Bedstraw plant response rating ([6]; Rate 62 g/ha): 0
Plant response rating, Bedstraw ([6]; Rate 125 g/ha, Postemergence): 7
Bedstraw plant response rating ([6]; Rate 125 g/ha): 1
Plant response rating, Bedstraw [6, 21]: 2
Plant response rating, Sugarbeets ([7]; Rate 62 g/ha, Postemergence): 9
Sugarbeets plant response rating ([7]; Rate 62 g/ha, Preemergence): 0
Sugarbeets plant response rating ([7]; Rate 125 g/ha, Postemergence): 9
Plant response rating, Sugarbeets ([7]; Rate 125 g/ha, Preemergence): 0
Plant response rating, Sugarbeets ([7]; Rate 250 g/ha, Postemergence): 9
Plant response rating, Sugarbeets [7, 21]: 0
Wheat plant response rating ([8]; Rate 62 g/ha, Postemergence): 1
Wheat plant response rating ([8]; Rate 62 g/ha, Preemergence): 0
Wheat plant response rating ([8]; Rate 125 g/ha, Postemergence): 1
Plant response rating, Wheat ([8]; Rate 125 g/ha, Preemergence): 0
Plant response rating, Wheat ([8]; Rate 250 g/ha, Postemergence): 1
Plant response rating, Wheat [8, 21]: 0
Plant response rating, Corn ([9]; Rate 62 g/ha, Postemergence): 1
Corn plant response rating ([9]; Rate 62 g/ha): 0
Plant response rating, Corn ([9]; Rate 125 g/ha, Postemergence): 1
Corn plant response rating ([9]; Rate 125 g/ha): 0
Plant response rating, Corn ([9]; Rate 250 g/ha, Postemergence): 1
Plant response rating, Corn [9, 21]: 0
Plant response rating, Morningglory ([10]; Rate 62 g/ha, Postemergence): 1
Morningglory plant response rating ([10]; Rate 62 g/ha, Preemergence): 0
Morningglory plant response rating ([10]; Rate 125 g/ha, Postemergence): 1
Morningglory plant response rating ([10]; Rate 125 g/ha, Preemergence): 0
Plant response rating, Morningglory ([10]; Rate 250 g/ha, Postemergence): 1
Plant response rating, Morningglory [10, 21]: 0
Plant response rating, Velvetleaf ([11]; Rate 62 g/ha, Postemergence): 1
Velvetleaf plant response rating ([11]; Rate 62 g/ha, Preemergence): 0
Velvetleaf plant response rating ([11]; Rate 125 g/ha, Postemergence): 1
Plant response rating, Velvetleaf ([11]; Rate 125 g/ha, Preemergence): 0
Plant response rating, Velvetleaf ([11]; Rate 250 g/ha, Postemergence): 2
Plant response rating, Velvetleaf [11, 21]: 0
Plant response rating, B. signalgrass ([12]; Rate 62 g/ha, Postemergence): 1
B. signalgrass plant response rating ([12]; Rate 62 g/ha): 0
Plant response rating, B. signalgrass ([12]; Rate 125 g/ha, Postemergence): 1
B. signalgrass plant response rating ([12]; Rate 125 g/ha): 0
Plant response rating, B. signalgrass ([12]; Rate 250 g/ha, Postemergence): 1
Plant response rating, B. signalgrass ([12]; Rate 250 g/ha, Postemergence as printed in head r139 (second section for compounds 26-50)): 1
Plant response rating, Nutsedge ([13]; Rate 62 g/ha, Postemergence): 0
Nutsedge plant response rating ([13]; Rate 62 g/ha, Preemergence): 0
Nutsedge plant response rating ([13]; Rate 125 g/ha, Postemergence): 0
Nutsedge plant response rating ([13]; Rate 125 g/ha, Preemergence): 0
Plant response rating, Nutsedge ([13]; Rate 250 g/ha, Postemergence): 0
Plant response rating, Nutsedge [13, 21]: 0
Plant response rating, Giant foxtail ([14]; Rate 62 g/ha, Postemergence): 0
Giant foxtail plant response rating ([14]; Rate 62 g/ha, Preemergence): 0
Giant foxtail plant response rating ([14]; Rate 125 g/ha, Postemergence): 1
Giant foxtail plant response rating ([14]; Rate 125 g/ha, Preemergence): 1
Plant response rating, Giant foxtail ([14]; Rate 250 g/ha, Postemergence): 0
Plant response rating, Giant foxtail [14, 21]: 1
Plant response rating, Crabgrass ([15]; Rate 62 g/ha, Postemergence): 0
Crabgrass plant response rating ([15]; Rate 62 g/ha): 0
Plant response rating, Crabgrass ([15]; Rate 125 g/ha, Postemergence): 0
Crabgrass plant response rating ([15]; Rate 125 g/ha): 0
Plant response rating, Crabgrass ([15]; Rate 250 g/ha, Postemergence): 1
Plant response rating, Crabgrass [15, 21]: 0
Plant response rating, Cocklebur ([16]; Rate 62 g/ha): 4
Cocklebur plant response rating ([16]; Rate 62 g/ha): 0
Plant response rating, Cocklebur ([16]; Rate 125 g/ha): 7
Cocklebur plant response rating ([16]; Rate 125 g/ha): 0
Plant response rating, Cocklebur ([16]; Rate 250 g/ha): 8
Plant response rating, S. Flatsedge [17, 22]: 0
S. Flatsedge plant response rating [17, 23]: 3
Plant response rating, S. Flatsedge [17, 24]: 4
Plant response rating, Barnyardgrass [18, 22]: 0
Plant response rating, Barnyardgrass [18, 25]: 0
Plant response rating, Barnyardgrass [18, 24]: 0
Plant response rating, Rice [19, 22]: 0
Rice plant response rating [19, 23]: 0
Plant response rating, Rice [19, 24]: 0
Plant response rating, Ducksalad [20, 22]: 0
Plant response rating, Ducksalad [20, 25]: 0
Plant response rating, Ducksalad [20, 24]: 0
